According to patent US20230002359A1, “PESTICIDALLY ACTIVE FUSED BICYCLIC HETEROAROMATIC COMPOUNDS” (priority 2019, published 2023):
Read-outs that look alike come from different tables or passages of the source.

Tests used:
Type in all cases: in vivo
[1] = tested on: Diabrotica Balteata (Corn Root Worm); experiment: Example B1: Diabrotica balteata (corn root worm), maize sprouts sprayed, L2 larvae; conditions: 96 h, read-out: control in at least one of the two categories (mortality or growth inhibition)
Summary of the method: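 Read-out is mortality plus growth inhibition relative to untreated controls, assessed 4 days after infestation. Sprouts resting on agar are sprayed with aqueous solutions derived from 10′000 ppm DMSO stocks and left to dry before L2 larvae (6 to 10 per well) are added.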

[2] = tested on: Euschistus heros (Neotropical Brown Stink Bug); experiment: Example B2: Euschistus heros (neotropical brown stink bug), soybean leaves sprayed, N2 nymphs; conditions: 120 h, read-out: control in at least one of the two categories (mortality or growth inhibition)
Protocol: Soybean leaves on agar in 24-well microtiter plates were sprayed with aqueous test solutions prepared from 10′000 ppm DMSO stock solutions. After drying the leaves were infested with N2 nymphs. The samples were assessed for mortality and growth inhibition in comparison to untreated samples 5 days after infestation.

[3] = tested on: Chilo suppressalis (Striped Rice Stemborer); experiment: Example B3: Chilo suppressalis (striped rice stemborer), artificial diet, L2 larvae; conditions: 144 h, read-out: control in at least one of the three categories (mortality, anti-feedant effect, or growth inhibition)
Summary of the method: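 Diet-incorporation surface assay: aqueous dilutions of 10'000 ppm DMSO stock applied to artificial diet, dried; 6-8 L2 larvae/well; read day 6 post-infestation for mortality, antifeedant effect, growth inhibition vs untreated. Active if any category above untreated.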

[4] = tested on: Plutella xylostella (Diamond Back Moth); experiment: Example B4: Plutella xylostella (diamond back moth), artificial diet, eggs, 24-well; conditions: 192 h, read-out: control in at least one of the two categories (mortality or growth inhibition)
Protocol: 24-well microtiter plates with artificial diet were treated with aqueous test solutions prepared from 10′000 ppm DMSO stock solutions by pipetting. After drying, Plutella eggs were pipetted through a plastic stencil onto a gel blotting paper and the plate was closed with it. The samples were assessed for mortality and growth inhibition in comparison to untreated samples 8 days after infestation.

[5] = tested on: Myzus persicae (Green Peach Aphid); experiment: Example B6: Myzus persicae (green peach aphid) intrinsic activity, sucrose solution; conditions: 120 h
Protocol: Test compounds prepared from 10′000 ppm DMSO stock solutions were applied by pipette into 24-well microtiter plates and mixed with sucrose solution. The plates were closed with a stretched Parafilm. A plastic stencil with 24 holes was placed onto the plate and infested pea seedlings were placed directly on the Parafilm. The infested plate was closed with a gel blotting paper and another plastic stencil and then turned upside down. The samples were assessed for mortality 5 days after infestation.

[6] = tested on: Spodoptera littoralis (Egyptian Cotton Leaf Worm); experiment: Example B7: Spodoptera littoralis (Egyptian cotton leaf worm), cotton leaf discs sprayed, L1 larvae; conditions: foliar, 72 h, read-out: control in at least one of the three categories (mortality, anti-feedant effect, or growth inhibition)
Summary of the method: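 Five L1 larvae per sprayed, dried cotton leaf disc on agar. Activity is counted when mortality, anti-feedant effect or growth inhibition exceeds the untreated sample at day 3.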

[7] = application rate of 200 ppm, 4 days after infestation, L2 larvae
[8] = application rate of 200 ppm, 5 days after infestation, N2 nymphs
[9] = application rate of 200 ppm, 6 days after infestation, L2 larvae
[10] = application rate of 200 ppm, 8 days after infestation, eggs
[11] = test rate of 12 ppm, 5 days after infestation, intrinsic activity, read-out: mortality
[12] = application rate of 200 ppm, 3 days after infestation, L1 larvae

CC(c1ncnn1-c1ccc(C#N)cn1)N(C(=O)OCc1ccccc1)c1ncnc2c(C(F)(F)F)cc(C(F)(F)F)cc12 (stereo not shown) [P.10, benzyl N-[6,8-bis(trifluoromethyl)quina-zolin-4-yl]-N-[1-[2-(5-cyano-2-pyridyl)-1,2,4-triazol-3-yl]ethyl]carbamate]
≥ 80%: percent control (mortality or growth inhibition) at 200 ppm [1] | percent control (mortality or growth inhibition) at 200 ppm [2] | percent control (mortality, anti-feedant effect or growth inhibition) at 200 ppm [3] | percent control (mortality or growth inhibition) at 200 ppm [4] | mortality at 12 ppm [5] | percent control (mortality, anti-feedant effect or growth inhibition) at 200 ppm [6]

CC(Nc1ncnc2c(C(F)(F)F)cc(C(F)(F)F)cc12)c1ncnn1-c1ncccn1 (stereo not shown) [P.16, N-[1-(2-pyrimidin-2-yl-1,2,4-triazol-3-yl)ethyl]-6,8-bis(trifluoromethyl)quinazolin-4-amine]
≥ 80%: percent control (mortality or growth inhibition) at 200 ppm [1, 7] | percent control (mortality or growth inhibition) at 200 ppm [2, 8] | percent control (mortality, anti-feedant effect or growth inhibition) at 200 ppm [3, 9] | percent control (mortality or growth inhibition) at 200 ppm [4, 10] | mortality at 12 ppm [5, 11] | percent control (mortality, anti-feedant effect or growth inhibition) at 200 ppm [6, 12]

CC(Nc1ncnc2c(C(F)(F)F)cc(Cl)cc12)c1ncnn1-c1ncccn1 (stereo not shown) [P.40, 6-chloro-N-[1-(2-pyrimidin-2-yl-1,2,4-triazol-3-yl)ethyl]-8-(trifluoromethyl)quinazolin-4-amine]
≥ 80%: percent control (mortality or growth inhibition) at 200 ppm [1, 7] | percent control (mortality or growth inhibition) at 200 ppm [2, 8] | percent control (mortality, anti-feedant effect or growth inhibition) at 200 ppm [3, 9] | percent control (mortality or growth inhibition) at 200 ppm [4, 10] | mortality at 12 ppm [5, 11] | percent control (mortality, anti-feedant effect or growth inhibition) at 200 ppm [6, 12]

CC(c1ncnn1-c1ncccn1)N(C)c1ncnc2c(Br)cc(C(F)(F)F)cc12 (stereo not shown) [P.71, 8-bromo-N-methyl-N-[1-(2-pyrimidin-2-yl-1,2,4-triazol-3-yl)ethyl]-6-(trifluoromethyl)quinazolin-4-amine]
≥ 80%: percent control (mortality or growth inhibition) at 200 ppm [1, 7] | percent control (mortality or growth inhibition) at 200 ppm [2, 8] | percent control (mortality, anti-feedant effect or growth inhibition) at 200 ppm [3, 9] | percent control (mortality or growth inhibition) at 200 ppm [4, 10] | mortality at 12 ppm [5, 11]

C[C@@H](c1ncnn1-c1ncccn1)N(C)c1ncnc2c(C(F)(F)F)cc(C(=O)C3CC3)cc12 [P.82, cyclopropyl-[4-[methyl-[(1S)-1-(2-pyrimidin-2-yl-1,2,4-triazol-3-yl)ethyl]amino]-8-(trifluoromethyl)quinazolin-6-yl]methanone]
≥ 80%: percent control (mortality or growth inhibition) at 200 ppm [1, 7] | percent control (mortality or growth inhibition) at 200 ppm [2, 8] | percent control (mortality, anti-feedant effect or growth inhibition) at 200 ppm [3, 9] | percent control (mortality or growth inhibition) at 200 ppm [4, 10] | mortality at 12 ppm [5, 11]

C[C@@H](c1ncnn1-c1ncccn1)N(C)c1ncnc2c(C(F)(F)F)cc(SC(F)(F)F)cc12 [P.84, N-methyl-N-[(1S)-1-(2-pyrimidin-2-yl-1,2,4-triazol-3-yl)ethyl]-8-(trifluoromethyl)-6-(trifluoromethylsulfanyl) quinazolin-4-amine]
≥ 80%: percent control (mortality or growth inhibition) at 200 ppm [1, 7] | percent control (mortality or growth inhibition) at 200 ppm [2, 8] | percent control (mortality, anti-feedant effect or growth inhibition) at 200 ppm [3, 9] | percent control (mortality or growth inhibition) at 200 ppm [4, 10] | mortality at 12 ppm [5, 11]

C[C@H](Nc1ncnc2c(C(F)(F)F)cc(I)cc12)c1ncnn1-c1ncccn1 [P.87, 6-iodo-N-[(1S)-1-(2-pyrimidin-2-yl-1,2,4-triazol-3-yl)ethyl]-8-(trifluoromethyl)quinazolin-4-amine]
≥ 80%: percent control (mortality or growth inhibition) at 200 ppm [1, 7] | percent control (mortality or growth inhibition) at 200 ppm [2, 8] | percent control (mortality, anti-feedant effect or growth inhibition) at 200 ppm [3, 9] | percent control (mortality or growth inhibition) at 200 ppm [4, 10] | mortality at 12 ppm [5, 11]

COCN(c1ncnc2c(C(F)(F)F)cc(C(F)(F)F)cc12)[C@@H](C)c1ncnn1-c1ccc(C#N)cn1 [P.169, 6-[5-[(1S)-1-[[6,8-bis(trifluoromethyl)quina-zolin-4-yl]-(methoxymethyl)amino]ethyl]-1,2,4-triazol-1-yl]pyridine-3-carbonitrile]
≥ 80%: percent control (mortality or growth inhibition) at 200 ppm [1, 7] | percent control (mortality or growth inhibition) at 200 ppm [2, 8] | percent control (mortality, anti-feedant effect or growth inhibition) at 200 ppm [3, 9] | percent control (mortality or growth inhibition) at 200 ppm [4, 10] | mortality at 12 ppm [5, 11] | percent control (mortality, anti-feedant effect or growth inhibition) at 200 ppm [6, 12]

CC(c1ncnn1-c1ccc(C#N)cn1)N(C)c1ncnc2c(OC(F)(F)F)cc(Br)cc12 (stereo not shown) [P.216, 6-[5-[1-[[6-bromo-8-(trifluoromethoxy)quinazo-lin-4-yl]-methyl-amino]ethyl]-1,2,4-triazol-1-yl]pyridine-3-carbonitrile]
≥ 80%: percent control (mortality or growth inhibition) at 200 ppm [1, 7] | percent control (mortality or growth inhibition) at 200 ppm [2, 8] | percent control (mortality, anti-feedant effect or growth inhibition) at 200 ppm [3, 9] | percent control (mortality or growth inhibition) at 200 ppm [4, 10] | percent control (mortality, anti-feedant effect or growth inhibition) at 200 ppm [6, 12]

CC(Nc1ncnc2c(C(F)(F)F)cc(OC(F)(F)F)cc12)c1ncnn1-c1ccc(C#N)cn1 (stereo not shown) [P.220, 6-[5-[1-[[6-(trifluoromethoxy)-8-(trifluoromethyl)quinazolin-4-yl]amino]ethyl]-1,2,4-triazol-1-yl]pyridine-3-carbonitrile]
≥ 80%: percent control (mortality or growth inhibition) at 200 ppm [1, 7] | percent control (mortality or growth inhibition) at 200 ppm [2, 8] | percent control (mortality, anti-feedant effect or growth inhibition) at 200 ppm [3, 9] | percent control (mortality or growth inhibition) at 200 ppm [4, 10] | mortality at 12 ppm [5, 11] | percent control (mortality, anti-feedant effect or growth inhibition) at 200 ppm [6, 12]

CC(=O)N(c1ncnc2c(C(F)(F)F)cc(C(F)(F)F)cc12)C(C)c1ncnn1-c1ccc(C#N)cn1 (stereo not shown) [P.259, N-[6,8-bis(trifluoromethyl)quina-zolin-4-yl]-N-[1-[2-(5-cyano-2-pyridyl)-1,2,4-triazol-3-yl]ethyl]acetamide]
≥ 80%: percent control (mortality or growth inhibition) at 200 ppm [1, 7] | percent control (mortality or growth inhibition) at 200 ppm [2, 8] | percent control (mortality, anti-feedant effect or growth inhibition) at 200 ppm [3, 9] | percent control (mortality or growth inhibition) at 200 ppm [4, 10] | percent control (mortality, anti-feedant effect or growth inhibition) at 200 ppm [6, 12]

C=CCN(c1ncnc2c(C(F)(F)F)cc(C(F)(F)F)cc12)C(C)c1ncnn1-c1ccc(C#N)cn1 (stereo not shown) [P.260, 6-[5-[1-[allyl-[6,8-bis(trifluoromethyl)quina-zolin-4-yl]amino]ethyl]-1,2,4-triazol-1-yl]pyridine-3-carbonitrile]
≥ 80%: percent control (mortality or growth inhibition) at 200 ppm [1, 7] | percent control (mortality or growth inhibition) at 200 ppm [2, 8] | percent control (mortality, anti-feedant effect or growth inhibition) at 200 ppm [3, 9] | percent control (mortality or growth inhibition) at 200 ppm [4, 10] | mortality at 12 ppm [5, 11] | percent control (mortality, anti-feedant effect or growth inhibition) at 200 ppm [6, 12]

C#CCN(c1ncnc2c(C(F)(F)F)cc(C(F)(F)F)cc12)C(C)c1ncnn1-c1ccc(C#N)cn1 (stereo not shown) [P.261, 6-[5-[1-[[6,8-bis(trifluoromethyl)quina-zolin-4-yl]-prop-2-ynyl-amino]ethyl]-1,2,4-triazol-1-yl]pyridine-3-carbonitrile]
≥ 80%: percent control (mortality or growth inhibition) at 200 ppm [1, 7] | percent control (mortality or growth inhibition) at 200 ppm [2, 8] | percent control (mortality, anti-feedant effect or growth inhibition) at 200 ppm [3, 9] | percent control (mortality or growth inhibition) at 200 ppm [4, 10] | percent control (mortality, anti-feedant effect or growth inhibition) at 200 ppm [6, 12]

C[C@@H](c1ncnn1-c1ncccn1)N(C)c1ncnc2c(C(F)(F)F)cc(C(F)(F)C3CC3)cc12 [P.276, 6-[cyclopropyl(difluoro)meth-yl]-N-methyl-N-[(1S)-1-(2-pyrimidin-2-yl-1,2,4-triazol-3-yl)ethyl]-8-(trifluromethyl)quinazolin-4-amine]
≥ 80%: percent control (mortality or growth inhibition) at 200 ppm [1, 7] | percent control (mortality or growth inhibition) at 200 ppm [2, 8] | percent control (mortality, anti-feedant effect or growth inhibition) at 200 ppm [3, 9] | percent control (mortality or growth inhibition) at 200 ppm [4, 10] | percent control (mortality, anti-feedant effect or growth inhibition) at 200 ppm [6, 12]
